Experimental data taken from patent US20220388969A1, “SUBSTITUTED 3,4-DIHYDROQ[…] THE TREATMENT AND PROPHYLAXIS OF HEPATITIS B VIRUS INFECTION” (priority 2019, published 2022).
Where two headings read alike, the source gives them in different places.

How the values were obtained:
[1] = system: HBsAg in HBV-infected primary human hepatocytes; assay: Cryopreserved primary human hepatocytes (PHH) HBV infection assay, extracellular HBsAg; format: cell-based; settings: Hepatitis B virus, Hepatocyte, 216 h, read-out: HBsAg IC50
Procedure: This assay is used to confirm the anti-HBV effect of the compounds in HBV PHH infection assay. Cryopreserved PHH (BioreclamationlVT, Lot YJM) was thawed at 37° C. and gently transferred into pre-warmed InVitroGRO HT medium (BioreclamationIVT, Cat. S03317). The mixture was centrifuged at 70 relative centrifugal force (RCF) for 3 minutes at RT, and the supernatant was discarded. Pre-warmed InVitroGRO CP medium (BioreclamationlVT, Cat# S03316) was added to the cell pellet to gently re-suspend cells. The cells were seeded at the density of 5.8×10^4 cells per well to collagen I coated 96-well plate (Gibco, Cat. A1142803) with the InVitroGRO CP medium. All plates were incubated at 37° C. with 5% CO2 and 85% humidity.
At 20 hours after plating, the medium was changed to PHH culture medium (Dulbecco's Modified Eagle Medium (DMEM)/F12 (1:1) (Gibco, Cat. 11320-033), 10% fetal bovine serum (Gibco Cat. 10099141), 100 U/mL penicillin, 100 μg/mL streptomycin (Gibco, Cat. 151401-122), 5 ng/mL human epidermal growth factor (Invitrogen Cat. PHG0311L), 20 ng/mL dexamethasone (Sigma, Cat. D4902) and 250 ng/mL human recombinant insulin (Gibco, Cat. 12585-014)). And the cells were incubated at 37° C. with 5% CO2 and 85% humidity for 4 hours. The medium was then changed to pre-warmed PHH culture medium containing 4% polyethylene glycol (PEG) MW8000 (Sigma, Cat. P1458-50ML) and 1% DMSO (Sigma, Cat. D2650). 5.8×10^6 genomic equivalents of HBV were added into the medium.
At 24 hours post-infection, the cells were gently washed with PBS and refreshed with PHH culture medium supplemented with 1% DMSO, and 0.25 mg/mL Matrix gel (Corning, Cat. 356237) at 200 μL per well. All plates were immediately placed in at 37° C. CO2 incubator.
24 hours later, serial dilutions of compounds made with DMSO were further diluted with the same culture medium (PHH culture medium supplemented with 1% DMSO and 0.25 mg/mL Matrix gel as described above) before they were added to the cells to reach desired final compound concentrations and 1% DMSO concentration. The medium containing the compounds were refreshed every three days.
At 9 days post-compound treatment, extracellular HBsAg level were measured with Chemiluminescence Immuno Assay (CLIA) kit (Autobio, HBsAg Quantitative CLIA).
HBsAg IC50 values were derived from the dose-response curve using 4 parameter logistic curve fit method. The compounds of formula (I) have HBsAg IC50<20 μM, particularly <1 μM.

[2] = system: HBeAg level in HepDES19 cells (surrogate marker for HBV cccDNA); assay: Engineered HepDES19 primary screen assay (HBeAg as surrogate marker for cccDNA); format: cell-based; settings: Hepatitis B virus, read-out: IC50 (HBeAg level, HepDES19 primary screen assay)
Excerpt: The assay was employed to screen for novel cccDNA inhibitors. HepDES19 is a cccDNA-producing cell line. In this cell line, HBeAg in the cell culture supernatant as surrogate marker, as HBeAg production depends on cccDNA level and activity. HepDES19 is an engineered cell line which contains a 1.1 unit length HBV genome, and pgRNA transcription from the transgene is controlled by Tetracycline (Tet). In the absence of Tet, pgRNA transcription will be induced, but HBV e antigen (HBeAg) could not be produced from this pgRNA due to very short leader sequence before the HBeAg start codon and the start codon is disrupted. Only after cccDNA is formed, the missing leader sequence and start codon mutation would be restored from the 3′-terminal redundancy of pgRNA, and then HBeAg could be synthesized. Therefore, HBeAg could be used as a surrogate marker for cccDNA (Zhou, T. et al., Antiviral Res.(2006), 72(2), 116-124; Guo, H. et al., J. Virol. (2007), 81(22), 12472-12484).
HepDES19 cells were seeded at 2×10^6 cells per T150 flask and cultured with the culture medium (Dulbecco's Modified Eagle Medium: Nutrient Mixture F-12 [DMEM-F12, Gibco Cat. 11320-82], 10% Fetal Bovine Serum [FBS, Clontech Cat. 631101], 0.1 mM Non-Essential Amino Acids Solution [NEAA, Gibco Cat. 11140-050], 50 μg/mL Penicillin-Streptomycin [PS, Invitrogen Cat. 15140-163], 500 μg/mL Geneticin [G418, Invitrogen Cat. 10131-027]) containing 3 μg/mL Tet (Sigma, Cat. 87128) for 5 days. Cells were then seeded at 4×10^6 cells per T150 in the same culture medium as described above in the absence of Tet for 8 days. Cells were then harvested and frozen at density of 2×10^6 cells per mL. For compound testing, the frozen cells were thawed and seeded into 96-well plates at a density of 6 ×10^4 cells per well. At 24hours after seeding, half log serial dilutions of compounds made with Dimethyl sulfoxide (DMSO, Sigma, Cat. D2650) were further diluted with the same culture medium as described above before they were added to the cells to reach desired final compound concentrations and 1% DMSO concentration. Plates were then incubated at 37° C. for another 5 days before measurement of HBeAg level and cell viability. Intracellular HBeAg level were measured with enzyme-linked immunosorbent assay (ELISA) kit (Shanghai Kehua Diagnostic Medical Products Co., Ltd). Cell viability was assessed using Cell Counting Kit-8 (DonJindo, Cat. CK04-20). IC50 values were derived from the dose-response curve using 4 parameter logistic curve fit method.
The compounds of the present invention were tested for their capacity to inhibit extracellular HBeAg level as described herein.

[3] = 120 h, HepDES19 cells, 5 days incubation with compound, HBeAg ELISA

Work on `O=C(O)C1NC(c2ccc(Br)cc2)=Nc2c(Cl)cccc21` (stereo not drawn) [Example 1, 2-(4-bromophenyl)-8-chloro-3,4-dihydroquinazoline-4-carboxylic Acid] yielded an IC50 [1] of 3.07 µM and an IC50 [2, 3] of 5.65 µM.
Compound `O=C(O)C1NC(c2ccccc2)=Nc2c(Cl)cccc21` (stereo not drawn) [Example 2, 8-chloro-2-phenyl-3,4-dihydroquinazoline-4-carboxylic Acid] has an IC50 [1] of 0.415 µM and an IC50 [2, 3] of 2.99 µM.
`O=C(O)C1NC(c2ccc(Cl)cc2)=Nc2c(Cl)cccc21` (stereo not drawn) [Example 3, 8-chloro-2-(4-chlorophenyl)-3,4-dihydroquinazoline-4-carboxylic Acid] showed an IC50 [1] of 1.5 µM and an IC50 [2, 3] of 10.3 µM.
For `COc1ccc(C2=Nc3c(Cl)cccc3C(C(=O)O)N2)cn1` (stereo not drawn) [Example 8, 8-chloro-2-(6-methoxy-3-pyridyl)-3,4-dihydroquinazoline-4-carboxylic Acid], the IC50 [2, 3] was 9.16 µM.
`CCOc1ccc(C2=Nc3c(Cl)cccc3C(C(=O)O)N2)cn1` (stereo not drawn) [Example 9, 8-chloro-2-(6-ethoxy-3-pyridyl)-3,4-dihydroquinazoline-4-carboxylic Acid] was tested, and the IC50 [2, 3] was 0.45 µM.
Compound `O=C(O)C1NC(c2ccc(N3CCCC3)nc2)=Nc2c(Cl)cccc21` (stereo not drawn) [Example 10, 8-chloro-2-(6-pyrrolidin-1-yl-3-pyridyl)-3,4-dihydroquinazoline-4-carboxylic Acid] has an IC50 [2, 3] of 0.05 µM.
With `CC1(C(=O)O)NC(c2ccc(Br)cc2)=Nc2c(Cl)cccc21` (stereo not drawn) [Example 11, 2-(4-bromophenyl)-8-chloro-4-methyl-3H-quinazoline-4-carboxylic Acid] the IC50 [2, 3] was 0.13 µM.
For `COc1ccc(C2=Nc3c(Cl)cccc3C(C(N)=O)N2)cc1` (stereo not drawn) [Example 14, 8-chloro-2-(4-methoxyphenyl)-3,4-dihydroquinazoline-4-carboxamide], the IC50 [2, 3] was 2.47 µM.
With `NC(=O)C1NC(c2cccc(Br)c2)=Nc2cc(C(F)(F)F)ccc21` (stereo not drawn) [Example 15, 2-(3-bromophenyl)-7-(trifluoromethyl)-3,4-dihydroquinazoline-4-carboxamide] the IC50 [2, 3] was 0.26 µM.
Compound `O=C(C1NC(c2ccc(Br)cc2)=Nc2cc(C(F)(F)F)ccc21)N1CCOCC1` (stereo not drawn) [Example 17, [2-(4-bromophenyl)-7-(trifluoromethyl)-3,4-dihydroquinazolin-4-yl]-morpholino-methanone] has an IC50 [2, 3] of 1.65 µM.
`O=C(NCCCl)C1NC(c2ccc(Br)cc2)=Nc2c(Cl)cccc21` (stereo not drawn) [Example 18, 2-(4-bromophenyl)-8-chloro-N-(2-chloroethyl)-3,4-dihydroquinazoline-4-carboxamide] was tested, and the IC50 ([2]; HepDES19, 120 h) was 2.59 µM.
For `CC1NC(c2ccc(OCCOCC(=O)O)cc2)=Nc2cc(C(F)(F)F)ccc21` (stereo not drawn) [Example 20, 2-[2-[4-[4-methyl-7-(trifluoromethyl)-3,4-dihydroquinazolin-2-yl]phenoxy]ethoxy]acetic Acid], the IC50 [2, 3] was 2.01 µM.
For `CC1NC(c2ccc(OCCO[C@H]3C[C@@H](C(=O)O)C3)cc2)=Nc2c(Cl)cccc21` (stereo partly drawn) [Example 21, cis-3-[2-[4-(8-chloro-4-methyl-3,4-dihydroquinazolin-2-yl)phenoxy]ethoxy]cyclobutanecarboxylic Acid], the IC50 [2, 3] was 1.03 µM.
`CC1NC(c2ccc(OCCOCC(=O)O)cc2)=Nc2c(Cl)cccc21` (stereo not drawn) [Example 23, 2-[2-[4-(8-chloro-4-methyl-3,4-dihydroquinazolin-2-yl)phenoxy]ethoxy]acetic Acid] was tested, and the IC50 [2, 3] was 1.78 µM.
`CC1c2ccc(C(F)(F)F)cc2N=C(c2cccc(Br)c2)N1C` (stereo not drawn) [Example 24, 2-(3-bromophenyl)-3,4-dimethyl-7-(trifluoromethyl)-4H-quinazoline] was tested, and the IC50 [2, 3] was 2.1 µM.
`CC1c2ccc(C(F)(F)F)cc2N=C(c2cccc(Br)c2)N1CCO` (stereo not drawn) [Example 25, 2-[2-(3-bromophenyl)-4-methyl-7-(trifluoromethyl)-4H-quinazolin-3-yl]ethanol] was tested, and the IC50 [2, 3] was 9.55 µM.
With `CC1c2cccc(Cl)c2N=C(c2ccc(OCCOCC(=O)O)cc2)N1C` (stereo not drawn) [Example 26, 2-[2-[4-(8-chloro-3,4-dimethyl-4H-quinazolin-2-yl)phenoxy]ethoxy]acetic acid] the IC50 [2, 3] was 5.54 µM.
In the case of `OCCOc1ccc(C2=Nc3c(Cl)cccc3CN2)cc1` [Example 27, 2-[4-(8-chloro-3,4-dihydroquinazolin-2-yl)phenoxy]ethanol], the IC50 [2, 3] is reported as 11.6 µM.
With `CC1NC(c2ccc(OCCO)cc2)=Nc2c(Cl)cccc21` (stereo not drawn) [Example 28, 2-[4-(8-chloro-4-methyl-3,4-dihydroquinazolin-2-yl)phenoxy]ethanol] the IC50 [2, 3] was 4.77 µM.
`COc1ccc2c(c1)CCN(C1=Nc3c(Cl)cccc3C(C)N1)C2=O` (stereo not drawn) [Example 29, 2-(8-chloro-4-methyl-3,4-dihydroquinazolin-2-yl)-6-methoxy-3,4-dihydroisoquinolin-1-one] gave an IC50 [2, 3] of 0.027 µM.
Work on `CC1NC(n2cnc(Br)c2)=Nc2cc(C(F)(F)F)ccc21` (stereo not drawn) [Example 30, 2-(4-bromoimidazol-1-yl)-4-methyl-7-(trifluoromethyl)-3,4-dihydroquinazoline] yielded an IC50 [2, 3] of 0.778 µM.
Compound `CC1NC(c2nc(Br)cs2)=Nc2c(Cl)cccc21` (stereo not drawn) [Example 31, 4-bromo-2-(8-chloro-4-methyl-3,4-dihydroquinazolin-2-yl)thiazole] has an IC50 [2, 3] of 2.03 µM.
`CC1NC(c2cccc(Br)c2)=Nc2cc(C(F)(F)F)ccc21` (stereo not drawn) [Example 33, 2-(3-bromophenyl)-4-methyl-7-(trifluoromethyl)-3,4-dihydroquinazoline] was tested, and the IC50 [2, 3] was 0.86 µM.
`CC1(C)NC(c2ccc(Br)cc2)=Nc2c(Cl)cccc21` [Example 34, 2-(4-bromophenyl)-8-chloro-4,4-dimethyl-3H-quinazoline hydrofluoride] showed an IC50 [2, 3] of 5.78 µM.
Compound `Clc1cccc2c1N=C(c1ccc(Br)cc1)NC2C1CC1` (stereo not drawn) [Example 35, 2-(4-bromophenyl)-8-chloro-4-cyclopropyl-3,4-dihydroquinazoline] has an IC50 [2, 3] of 0.41 µM.
`CC1NC(c2ccc(Br)cc2OCCOC2CC(C(=O)O)C2)=Nc2c(Cl)cccc21` (stereo not drawn) [Example 37, 3-[2-[5-bromo-2-(8-chloro-4-methyl-3,4-dihydroquinazolin-2-yl)phenoxy]ethoxy]cyclobutanecarboxylic Acid] gave an IC50 [2, 3] of 1.97 µM.
Work on `OCC1NC(c2ccc(Br)cc2)=Nc2c(Cl)cccc21` (stereo not drawn) [Example 38, [2-(4-bromophenyl)-8-chloro-3,4-dihydroquinazolin-4-yl]methanol] yielded an IC50 [2, 3] of 5.32 µM.
